Patent publication US12448363B2, “Kinase inhibitors” (Vidya Therapeutics, Inc., priority 2020, dated 2025)
pIC50: −log10 of the molar value.

What was measured:
[1] = test system: BTK Activity in RAMOS B Cells; test: Assay to determine BTK activity in RAMOS B cells (anti-IgM, FLIPR Calcium 6); assay type: cell-based; details: EC80 anti-IgM, FLIPR calcium read
Experimental: On the day before assay, Ramos B cells were plated in plating medium (RPMI1640 medium containing 1% FBS and 1× pencillin-streptomycin). On the day of the assay, 2× dye solution was prepared following the manual of the FLIRP Calcium 6 Assay Kit: Dilute the dye with assay buffer (20 mM HEPES in 1×HBSS, pH7.4); Add probenecid to the final concentration of 5 mM; vortex vigorously for 1-2 minutes. Cells were collected by centrifuging, and the pellet was resuspended in plating medium. After counting, cells were resuspended at a density of 3×10^6/ml in plating medium. Equal volume of 2× dye solution was added to the cell suspension. Cells were then plated at 20 μl/well into a 384-well poly-D-lysine coated plate. Plate was centrifuged at 1000 rpm for 3 minutes and then incubated at 37° C. for 2 hours followed by an additional 15-minute incubation at 25° C. Compounds were prepared at 3× concentration in dilution buffer (20 mM HEPES and 0.1% BSA in 1×HBSS, pH 7.4). Serially diluted compound was transferred from source plate to a 384-well compound plate by using an Echo 550 (Labcyte). 20 μl/well compound dilution buffer was added to the compound plate and mixed on plate shaker for 2 mins. 4×EC80 of Anti-IgM (Jackson ImmunoResearch) was prepared in dilution buffer and 20 μl/well was added to a new 384-well compound plate. After 60 mins of incubation at 25° C. in the dark; cell plate, compound plate containing 4×EC80 of anti-IgM and FLIPR tips were placed into FLIPR (Molecular Devices). 10 ul/well of 4×EC80 anti-IgM was transferred to the cell plate by FLIPR. Plates were read for 160 sec with 1 sec interval.
With respect to Ramos activity, Table 9 lists activity as follows: • “A” denotes an IC50 of less than 10 nM; • “B” denotes an IC50 of from 10 nM to less than 100 nM; and • “C” denotes and IC50 of 100 nM or more.

BTK = BTK (Homo sapiens, UniProt Q06187); test: Assay to determine activity against BTK (EZ reader, FLPeptide); assay type: biochemical; design: purchased Carna; details: ATP (1 mM), BTK (2 nM), room temperature for 90 minutes
Chain of BTK (Q06187 whole entry): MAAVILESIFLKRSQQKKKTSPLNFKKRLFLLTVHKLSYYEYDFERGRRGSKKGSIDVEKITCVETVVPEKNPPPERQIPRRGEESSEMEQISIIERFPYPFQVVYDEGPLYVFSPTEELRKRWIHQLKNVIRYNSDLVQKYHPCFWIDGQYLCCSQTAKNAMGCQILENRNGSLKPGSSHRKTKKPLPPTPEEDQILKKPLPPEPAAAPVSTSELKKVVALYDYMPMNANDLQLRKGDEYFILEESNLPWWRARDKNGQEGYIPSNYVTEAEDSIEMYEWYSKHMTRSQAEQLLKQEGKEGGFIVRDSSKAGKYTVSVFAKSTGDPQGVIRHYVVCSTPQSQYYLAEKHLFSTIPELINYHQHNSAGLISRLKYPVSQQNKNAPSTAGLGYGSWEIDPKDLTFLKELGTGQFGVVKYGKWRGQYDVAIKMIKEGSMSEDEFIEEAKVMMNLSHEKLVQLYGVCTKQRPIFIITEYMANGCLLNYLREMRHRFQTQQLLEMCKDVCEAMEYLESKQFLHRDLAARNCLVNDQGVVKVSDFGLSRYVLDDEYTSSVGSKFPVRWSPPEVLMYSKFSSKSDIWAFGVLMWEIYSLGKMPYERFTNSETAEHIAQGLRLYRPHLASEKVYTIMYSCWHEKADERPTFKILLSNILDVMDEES
Experimental: Solutions of compounds (test or control) in DMSO were prepared at the desired concentrations, and serially diluted to 11 concentrations by 3-fold dilution in 384pp-plate using TECAN EVO200. 20 nL of stock were transferred to 384 plate using Echo550. DMSO was used as vehicle control.
Two separate solutions were prepared—an ATP solution containing MgCl2 (10 mM), Brij-35 (0.01%), DTT (2 mM), BSA (0.05%), EGTA (1 mM), HEPE (pH7.5) (50 mM), FLPeptide (6 uM) and ATP (4 mM); and a BTK solution containing MgCl2 (10 mM), Brij-35 (0.01%), DTT (2 mM), BSA (0.05%), EGTA (1 mM), HEPE (pH7.5) (50 mM) and BTK (2.67 nM). […] (Note the final volume of each well was 20 uL containing MgCl2 (10 mM), Brij-35 (0.01%), DTT (2 mM), BSA (0.05%), EGTA (1 mM), HEPE (pH7.5) (50 mM), FLPeptide (1.5 uM), ATP (1 mM) and BTK (2 nM).
The plates were incubated at room temperature for 90 minutes and then stopping buffer added (75 uL, containing 0.5 M EDTA) to terminate the reaction. Samples from each well were analyzed using EZ reader. The % remaining activity was calculated using read conversion ratio (CR) according to the equation: […]
XLFit (equation 201) was used to calculate IC50s by floating both bottom and top.
With respect to BTK activity, Table 4 lists activity as follows: • “A” denotes an IC50 of less than 10 nM, • “B” denotes an IC50 of from 10 nM to less than 100 nM; and • “C” denotes and IC50 of 100 nM or more.

| Structure (SMILES) | pIC50 [1] | pIC50 (BTK) | pIC50 ([1]; Homo sapiens, Ramos) |
| --- | --- | --- | --- |
| C=CC(=O)N1CCc2c(cccc2-c2c(F)cc(C(N)=O)c3[nH]c(C)c(F)c23)C1 (atropisomer, axis not shown) [Compound 20e, (S)-4-(2-acryloyl-1,2,3,4-tetrahydroisoquinolin-5-yl)-3,5-difluoro-2-methyl-1H-indole-7-carboxamide] | > 8.00 | > 8.00 |  |
| C=CC(=O)N1CCc2c(cccc2-c2c(F)cc(C(N)=O)c3[nH]c(C)c(F)c23)C1 (atropisomer, axis not shown) [Compound 20f, (R)-4-(2-acryloyl-1,2,3,4-tetrahydroisoquinolin-5-yl)-3,5-difluoro-2-methyl-1H-indole-7-carboxamide] | ≤ 7.00 | ≤ 7.00 |  |
| C=CC(=O)N1CCc2c(cccc2-c2c(F)cc(C(N)=O)c3[nH]c(C)c(C#N)c23)C1 (atropisomer, axis not shown) [Compound 20h, (S)-4-(2-acryloyl-1,2,3,4-tetrahydroisoquinolin-5-yl)-3-cyano-5-fluoro-2-methyl-1H-indole-7-carboxamide] | ≤ 7.00 | ≤ 7.00 |  |
| C=CC(=O)N1CCc2c(cccc2-c2c(F)cc(C(N)=O)c3[nH]c(C)c(C#N)c23)C1 (atropisomer, axis not shown) [Compound 20i, (R)-4-(2-acryloyl-1,2,3,4-tetrahydroisoquinolin-5-yl)-3-cyano-5-fluoro-2-methyl-1H-indole-7-carboxamide] | 7.00 to 8.00 | > 8.00 |  |
| C=CC(=O)N1CCc2c(cccc2-c2c(F)c(F)c(C(N)=O)c3[nH]c(C)c(Cl)c23)C1 (atropisomer, axis not shown) [Compound 21b, (R)-4-(2-acryloyl-1,2,3,4-tetrahydroisoquinolin-5-yl)-3-chloro-5,6-difluoro-2-methyl-1H-indole-7-carboxamide] | > 8.00 | > 8.00 |  |
| C=CC(=O)N1CCc2c(cccc2-c2c(F)c(F)c(C(N)=O)c3[nH]c(C)c(Cl)c23)C1 (atropisomer, axis not shown) [Compound 21c, (S)-4-(2-acryloyl-1,2,3,4-tetrahydroisoquinolin-5-yl)-3-chloro-5,6-difluoro-2-methyl-1H-indole-7-carboxamide] | ≤ 7.00 | ≤ 7.00 |  |
| C=CC(=O)N1C[C@H]2CCN(c3c(F)cc(C(N)=O)c4[nH]c(C)c(Cl)c34)C[C@@H]2C1 (racemic) [Compound 39, 4-(trans-2-acryloyloctahydro-5H-pyrrolo[3,4-c]pyridin-5-yl)-3-chloro-5-fluoro-2-methyl-1H-indole-7-carboxamide] |  | ≤ 7.00 | ≤ 7.00 |
| C=CC(=O)N1CCc2c(cccc2-c2c(F)cc(C(N)=O)c3[nH]c(C)c(Cl)c23)C1 (single isomer, unassigned) [Compound 20c] | ≤ 7.00 | ≤ 7.00 |  |
| C=CC(=O)N1CCc2c(-c3c(F)cc(C(N)=O)c4[nH]c(C)c(Cl)c34)cccc2[C@H]1C (single isomer, unassigned) [Compound 22b] | ≤ 7.00 | ≤ 7.00 |  |
| C=CC(=O)N1CCc2c(-c3c(F)cc(C(N)=O)c4[nH]c(C)c(Cl)c34)cccc2[C@@H]1C (single isomer, unassigned) [Compound 22c] |  | ≤ 7.00 | ≤ 7.00 |
| C=CC(=O)N1CCc2c(-c3c(F)cc(C(N)=O)c4[nH]c(C)c(Cl)c34)cccc2[C@@H]1C (single isomer, unassigned) [Compound 22d] | ≤ 7.00 | ≤ 7.00 |  |
| C=CC(=O)N1CCc2c(-c3c(F)cc(C(N)=O)c4[nH]c(C)c(Cl)c34)cccc2[C@H]1C (single isomer, unassigned) [Compound 22e] | > 8.00 | > 8.00 |  |
| C=CC(=O)N1Cc2cccc(-c3c(F)cc(C(N)=O)c4[nH]c(C)c(Cl)c34)c2C2(CC2)C1 (single isomer, unassigned) [Compound 24c] |  | 7.00 to 8.00 | ≤ 7.00 |
| C=CC(=O)N1Cc2cccc(-c3c(F)cc(C(N)=O)c4[nH]c(C)c(Cl)c34)c2C2(CC2)C1 (single isomer, unassigned) [Compound 24d] | ≤ 7.00 | ≤ 7.00 |  |
| C=CC(=O)N1CCCc2c(cccc2-c2c(F)cc(C(N)=O)c3[nH]c(C)c(Cl)c23)C1 (single isomer, unassigned) [Compound 25c] |  | ≤ 7.00 | ≤ 7.00 |
| C=CC(=O)N1CCCc2c(cccc2-c2c(F)cc(C(N)=O)c3[nH]c(C)c(Cl)c23)C1 (single isomer, unassigned) [Compound 25d] | ≤ 7.00 | 7.00 to 8.00 |  |
| C=CC(=O)N1CCC2CCN(c3c(F)cc(C(N)=O)c4[nH]c(C)c(Cl)c34)CC21 (single isomer, unassigned) [Compound 29b, 4-(1-acryloyloctahydro-6H-pyrrolo[2,3-c]pyridin-6-yl)-3-chloro-5-fluoro-2-methyl-1H-indole-7-carboxamide] | 7.00 to 8.00 | > 8.00 |  |
| C=CC(=O)N1CCCC(c2c(F)cc(C(N)=O)c3[nH]c(C)c(Cl)c23)C1 (stereo not shown) [Compound 2, 4-(1-acryloylpiperidin-3-yl)-3-chloro-5-fluoro-2-methyl-1H-indole-7-carboxamide] |  | > 8.00 | > 8.00 |
| C=CC(=O)N1CCCC(c2c(F)c(F)c(C(N)=O)c3[nH]c(C)c(Cl)c23)C1 (stereo not shown) [Compound 3, 4-(1-acryloylpiperidin-3-yl)-3-chloro-5,6-difluoro-2-methyl-1H-indole-7-carboxamide] |  | > 8.00 | > 8.00 |
| C=CC(=O)N1CCC=C(c2c(F)c(F)c(C(N)=O)c3[nH]c(C)c(C#N)c23)C1 [Compound 5, 4-(1-acryloyl-1,2,5,6-tetrahydropyridin-3-yl)-3-cyano-5,6-difluoro-2-methyl-1H-indole-7-carboxamide] |  | > 8.00 | 7.00 to 8.00 |
| C#CC(=O)N1CCC[C@H](c2c(F)cc(C(N)=O)c3[nH]c(C)c(Cl)c23)C1 [Compound 7, (R)-3-chloro-5-fluoro-2-methyl-4-(1-propioloylpiperidin-3-yl)-1H-indole-7-carboxamide] |  | > 8.00 | > 8.00 |
| C#CC(=O)N1CCC[C@@H](c2c(F)cc(C(N)=O)c3[nH]c(C)c(Cl)c23)C1 [Compound 8, (S)-3-chloro-5-fluoro-2-methyl-4-(1-propioloylpiperidin-3-yl)-1H-indole-7-carboxamide] |  | > 8.00 | > 8.00 |
| C=CC(=O)N1CC(F)CC(c2c(F)cc(C(N)=O)c3[nH]c(C)c(Cl)c23)C1 (stereo not shown) [Compound 9, 4-(1-acryloyl-5-fluoropiperidin-3-yl)-3-chloro-5-fluoro-2-methyl-1H-indole-7-carboxamide] |  | > 8.00 | > 8.00 |
| C=CC(=O)N1CCCC(c2c(F)c(F)c(C(N)=O)c3[nH]c(C)c(C#N)c23)C1 (stereo not shown) [Compound 10, 4-(1-acryloylpiperidin-3-yl)-3-cyano-5,6-difluoro-2-methyl-1H-indole-7-carboxamide] |  | 7.00 to 8.00 | 7.00 to 8.00 |
| C=CC(=O)N1CCC[C@H](c2c(F)cc(C(N)=O)c3[nH]c(C)c(C(F)F)c23)C1 [Compound 11, (R)-4-(1-acryloylpiperidin-3-yl)-3-(difluoromethyl)-5-fluoro-2-methyl-1H-indole-7-carboxamide] |  | ≤ 7.00 | ≤ 7.00 |
| C=CC(=O)N1CCC[C@@H](c2c(F)cc(C(N)=O)c3[nH]c(C)c(C(F)F)c23)C1 [Compound 12, (S)-4-(1-acryloylpiperidin-3-yl)-3-(difluoromethyl)-5-fluoro-2-methyl-1H-indole-7-carboxamide] |  | ≤ 7.00 | ≤ 7.00 |
